According to the NIST ThermoML archive (doi:10.1021/je060411g):
± gives the expanded uncertainty stated by the source.

Test: molar heat capacity at constant pressure
Conditions: 101.33 kPa

CC(C)C(C)O (stereo unspecified) [3-methyl-2-butanol]
Conditions	molar heat capacity at constant pressure [J/K/mol]
84.8 K, Glass	64.32 ± 1.6
85.35 K, Glass	64.92 ± 1.6
86.61 K, Glass	65.12 ± 1.6
87.96 K, Glass	65.91 ± 1.6
88.5 K, Glass	66.12 ± 1.6
88.57 K, Glass	66.46 ± 1.6
89.76 K, Glass	68.19 ± 1.7
90.5 K, Glass	68.52 ± 2
91.72 K, Glass	69.65 ± 2.1
92.44 K, Glass	69.5 ± 2.1
93.66 K, Glass	70.82 ± 2.1
94.37 K, Glass	70.42 ± 2.1
95.6 K, Glass	72.69 ± 2.1
96.3 K, Glass	72.33 ± 2.1
97.54 K, Glass	73.76 ± 2.1
98.24 K, Glass	73.35 ± 2.1
99.48 K, Glass	75.44 ± 2.2
100.17 K, Glass	75.01 ± 2.2
101.42 K, Glass	76.81 ± 2.2
102.11 K, Glass	76.45 ± 2.2
103.37 K, Glass	78.23 ± 2.2
104.06 K, Glass	77.94 ± 2.2
105.32 K, Glass	79.77 ± 2.2
106 K, Glass	79.31 ± 2.2
107.95 K, Glass	80.89 ± 2.3
109.9 K, Glass	82.57 ± 2.3
110.42 K, Glass	83.46 ± 2.3
110.85 K, Glass	82.24 ± 2.3
111.85 K, Glass	84.29 ± 2.3
112.07 K, Glass	84.44 ± 2.3
113.8 K, Glass	85.97 ± 2.4
114.04 K, Glass	86.22 ± 2.4
115.76 K, Glass	87.69 ± 2.4
116 K, Glass	87.96 ± 2.4
117.71 K, Glass	89.53 ± 2.4
119.67 K, Glass	91.4 ± 2.5
121.44 K, Glass	93.27 ± 2.5
121.62 K, Glass	93.55 ± 2.5
122.07 K, Glass	94.36 ± 2.5
123.27 K, Glass	95.77 ± 2.5
123.58 K, Glass	95.92 ± 2.5
125.24 K, Glass	98.99 ± 2.6
125.53 K, Glass	98.88 ± 2.6
127.2 K, Glass	102.7 ± 2.7
127.49 K, Glass	103.22 ± 2.7
129.14 K, Glass	107.45 ± 2.8
134.82 K, Liquid	136.07 ± 3.3
135.09 K, Liquid	140.35 ± 3.4
136.74 K, Liquid	138.24 ± 3.4
137.01 K, Liquid	138.6 ± 3.4
138.7 K, Liquid	138.95 ± 3.4
138.97 K, Liquid	138.85 ± 3.4
140.69 K, Liquid	139.38 ± 3.4
140.95 K, Liquid	139.07 ± 3.4
142.67 K, Liquid	139.54 ± 3.4
142.93 K, Liquid	139.3 ± 3.4
144.66 K, Liquid	139.76 ± 3.4
144.91 K, Liquid	139.63 ± 3.4
146.65 K, Liquid	140.2 ± 3.4
146.9 K, Liquid	139.94 ± 3.4
148.63 K, Liquid	140.52 ± 3.4
148.88 K, Liquid	140.31 ± 3.4
150.86 K, Liquid	140.31 ± 3.4
152.85 K, Liquid	140.9 ± 3.4
154.84 K, Liquid	141.35 ± 3.4
156.74 K, Liquid	142.41 ± 3.4
156.82 K, Liquid	141.64 ± 3.4
158.09 K, Liquid	142.73 ± 3.5
158.81 K, Liquid	142.09 ± 3.4
160.22 K, Liquid	143.13 ± 3.5
160.79 K, Liquid	142.41 ± 3.4
162.32 K, Liquid	143.63 ± 3.5
162.78 K, Liquid	142.9 ± 3.5
164.37 K, Liquid	144.12 ± 3.5
164.76 K, Liquid	143.07 ± 3.5
166.39 K, Liquid	145.96 ± 3.5
166.75 K, Liquid	143.51 ± 3.5
168.38 K, Liquid	145.62 ± 3.5
168.73 K, Liquid	143.97 ± 3.5
170.37 K, Liquid	146.06 ± 3.5
170.72 K, Liquid	144.62 ± 3.5
172.37 K, Liquid	145.89 ± 3.5
172.7 K, Liquid	145.15 ± 3.5
174.37 K, Liquid	146.25 ± 3.5
174.69 K, Liquid	145.71 ± 3.5
176.36 K, Liquid	147.39 ± 3.5
176.67 K, Liquid	146.37 ± 3.5
178.34 K, Liquid	147.47 ± 3.5
178.66 K, Liquid	147.29 ± 3.5
180.33 K, Liquid	147.95 ± 3.5
180.64 K, Liquid	148.09 ± 3.6
182.33 K, Liquid	148.74 ± 3.6
182.63 K, Liquid	149.07 ± 3.6
184.32 K, Liquid	149.21 ± 3.6
184.61 K, Liquid	149.6 ± 3.6
186.31 K, Liquid	149.62 ± 3.6
186.6 K, Liquid	150.32 ± 3.6
188.3 K, Liquid	149.99 ± 3.6
188.59 K, Liquid	150.72 ± 3.6
190.3 K, Liquid	150.82 ± 3.6
190.58 K, Liquid	151.56 ± 3.6
192.29 K, Liquid	151.37 ± 3.6
192.57 K, Liquid	152.24 ± 3.6
194.28 K, Liquid	152 ± 3.6
194.56 K, Liquid	152.93 ± 3.6
196.27 K, Liquid	152.73 ± 3.6
196.55 K, Liquid	153.74 ± 3.7
198.26 K, Liquid	153.78 ± 3.7
198.54 K, Liquid	154.39 ± 3.7
200.25 K, Liquid	154.7 ± 3.7
200.53 K, Liquid	155.32 ± 3.7
202.24 K, Liquid	155.43 ± 3.7
202.51 K, Liquid	156.2 ± 3.7
204.23 K, Liquid	156.17 ± 3.7
204.5 K, Liquid	157.11 ± 3.7
206.21 K, Liquid	156.91 ± 3.7
206.48 K, Liquid	158.08 ± 3.8
208.2 K, Liquid	157.81 ± 3.8
208.47 K, Liquid	159.14 ± 3.8
210.18 K, Liquid	158.87 ± 3.8
210.46 K, Liquid	160.17 ± 3.8
212.17 K, Liquid	159.83 ± 3.8
214.15 K, Liquid	160.86 ± 3.8
216.12 K, Liquid	161.85 ± 3.8
218.08 K, Liquid	163.18 ± 3.9
220.04 K, Liquid	164.39 ± 3.9
221.99 K, Liquid	165.9 ± 3.9
223.93 K, Liquid	167.49 ± 3.9
225.86 K, Liquid	168.89 ± 4
227.79 K, Liquid	170.77 ± 4
229.71 K, Liquid	172.05 ± 4
231.62 K, Liquid	173.69 ± 4.1
233.53 K, Liquid	175.59 ± 4.1
235.43 K, Liquid	177.3 ± 4.1
237.32 K, Liquid	178.86 ± 4.2
239.2 K, Liquid	180.5 ± 4.2
241.08 K, Liquid	182.29 ± 4.2
242.96 K, Liquid	184.02 ± 4.3
244.82 K, Liquid	185.3 ± 4.3
246.68 K, Liquid	187.07 ± 4.3
248.53 K, Liquid	188.6 ± 4.4
250.37 K, Liquid	190.8 ± 4.4
252.21 K, Liquid	192.67 ± 4.5
254.03 K, Liquid	194.25 ± 4.5
255.85 K, Liquid	196.29 ± 4.5
257.67 K, Liquid	198.36 ± 4.6
259.47 K, Liquid	200.36 ± 4.6
261.27 K, Liquid	202.49 ± 4.7
263.06 K, Liquid	204.59 ± 4.7
264.84 K, Liquid	206.44 ± 4.7
266.62 K, Liquid	208.79 ± 4.8
268.39 K, Liquid	210.85 ± 4.8
270.15 K, Liquid	212.97 ± 4.9
271.91 K, Liquid	215.09 ± 4.9
273.66 K, Liquid	217.48 ± 5
275.41 K, Liquid	219.86 ± 5
277.14 K, Liquid	222.01 ± 5
278.87 K, Liquid	224.26 ± 5.1
280.6 K, Liquid	226.68 ± 5.1
282.31 K, Liquid	228.97 ± 5.2
284.02 K, Liquid	230.98 ± 5.2
285.72 K, Liquid	233.15 ± 5.3
287.42 K, Liquid	234.9 ± 5.3
289.11 K, Liquid	237.64 ± 5.4
290.79 K, Liquid	239.38 ± 5.4
292.47 K, Liquid	241.39 ± 5.4
294.15 K, Liquid	243.38 ± 5.5
295.81 K, Liquid	245.77 ± 5.5
297.47 K, Liquid	247.45 ± 5.6
299.13 K, Liquid	249.65 ± 5.6
300.78 K, Liquid	250.94 ± 5.6
